# In US10183055B2, “Ang-(1-7) derivative oligopeptides for the treatment of pain and other indications” (ARIZONA BOARD OF REGENTS ON BEHALF OF THE UNIVERSITY OF …, priority 2014, dated 2019):
# Like-named read-outs stand apart in the source and are kept apart here. Residues, ends and D or L forms follow the SMILES beside them. *: point of attachment. X2 = OC[C@H]1O[C@@H](O[C@H]2[C@H](O)[C@@H](O)[C@H](*)O[C@@H]2CO)[C@H](O)[C@@H](O)[C@H]1O; X1 = OC[C@H]1OC(*)[C@H](O)[C@@H](O)[C@@H]1O
# Key:
# naïve mice = test: Rotarod performance test; type: in vivo; conditions: spinal 0.3 pmol/5 μL or systemic 0.058 and 10 μg/kg
# Description: Rotarod: A rotarod performance test was used to determine the motor and/or sedative effects of Ang-(1-7) (Rotamex 4/8, Columbus Instruments, Columbus, Ohio, USA). Three days prior to testing, naïve mice were subjected to 5 trials in which they were able to acclimate to the rotating rod (10 revolutions/min). On the day of testing, animals were allowed one trial and then baselined. The amount of time the animal remained on the rod was recorded, with a cutoff time of 120 seconds to prevent exhaustion. Animals were dosed (i.p.) as previously described and reevaluated 15, 30, 60, and 120 minutes post-administration.
# To exclude the possibility that Ang-(1-7) administration reduced mobility in order to increase tail withdraw latency, rotarod testing was performed. Naïve animals were trained to walk on a rotating rod for 2 min. After training, animals were injected with Ang-(1-7) by either spinal (0.3 pmol/5 μL) or systemic routes (0.058 and 10 μg/kg).
# [1] = test system: BALB/cAnNHsd mice with intramedullary 66.1 cells (CIBP); test: Established CIBP, acute behavioral testing (flinching/guarding); type: in vivo; conditions: for pain behaviors, AT1 or AT2 antagonist administered alone: 0.4 mg/kg i.p.
# Description: Animals: Female BALB/cAnNHsd mice (Harlan, Ind., USA) between 15 and 20 g were used in this study. Mice were housed in a climate control room on a 12-hour light/dark cycle and allowed food and water ad libitum. Animals were monitored on days 0, 7, 10, and 14 of the study for clinical signs of rapid weight loss and signs of distress.
# All intraperitoneal (i.p.) injections were made at a volume of 10 mL/kg.
# Arthrotomy—Intramedullary Implantation of 66.1 Cells: To induce CIBP, an arthrotomy was performed. Briefly, animals were anesthetized with 80 mg/kg ketamine-12 mg/kg xylazine (in a 10 mL/kg volume). The surgical area was shaved and cleaned with 70% ethanol and betadine. The condyles of the right femur were exposed and a burr-hole (0.66 mm) was drilled to create a space for the 66.1 cell inoculation. A 5 μl volume of 66.1 cells (8,000 cells per 1 μl) in MEM (or 5 μl MEM without cells in sham animals) was injected into the intramedullary space of the mouse femora. Proper placement of the injector was confirmed by radiograph (Faxitron X-ray imaging). Holes were sealed with bone cement and the patella reset. Muscle and skin were closed in separate layers with 5-0 vicryl suture and wound autoclips, respectively. Animals were given 8 mg/kg (10 mL/kg volume) gentamicin to prevent infection. Staples were removed 7 days post-surgery.
# Acute Behavioral Testing: Fourteen days post-surgery, baseline behaviors of spontaneous flinching/guarding were recorded. Flinching was characterized by the lifting and rapid flexing of the hind paw ipsilateral to femoral inoculation when not associated with walking or other movement. Guarding was characterized by the lifting the inoculated hind limb into a fully retracted position under the torso. The total number of flinches and the time spent guarding 2 min duration was recorded. […] Antagonists were administered 30 minutes prior to Ang-(1-7). Following administration, animals were tested at over a three-hour time course until their pain behaviors returned to baseline
# [2] = test system: human umbilical vascular endothelial cells (HUVEC); test: NO production assay (DAF-FM fluorescence, microplate reader); type: cell-based; conditions: 5 minutes exposure
# Description: NO production assay. As a screen for mechanisms of action of oligopeptides of the invention, the ability to increase NO production of three oligopeptides of the invention (PN-A3, PN-A4 and PN-A5) were characterized and compared to native Ang-(1-7). Human umbilical vascular endothelial cells (HUVEC) culture plates received fluorescence reaction buffer (0.2 M phosphate buffer, pH 7, 1 mM EDTA, 0.1% glucose) containing diaminofluorescein-FM diacetate (DAF-FM, 1 μM) to measure real-time NO production. Time-resolved (10 minutes) fluorescent intensity was detected using a BioTek Synergy 2 microplate reader with excitation at 485 nm and emission at 535 nm. DAF-FM is a sensitive flourometric derivative for the selective detection of NO in live cells.
# Values were normalized to control fluorescence.
# [3] = test system: human umbilical vascular endothelial cells (HUVEC); test: xCELLigence RTCA cell activation (cell impedance); type: cell-based
# From the text: Cell culture. To isolate primary hippocampal CA1 neuronal cells, whole brain was removed from neonatal rat pups (1-2 day old) and the cortices dissected away. The hippocampus was isolated and the CA1 field was excised and placed in buffer. After gentle disruption in digestion buffer, the cells were counted, placed in culture media, and plated in a 96-well format coated with poly-d-lysine. At the time of plating, cells were approximately at 50% density and were allowed to culture to 70-80% density before starting the assay. Commercially available HUVEC (Life Technologies/Thermo Fisher) was thawed and plated (5000-10,000 cells/well) in a 96-well format coated with gelatin. HUVEC cells were allowed to culture overnight before starting the assay.
# Cell Activation: The xCELLigence system Real-Time Cell Analyzer (RTCA), developed by Roche Applied Science, uses microelectronic biosensor technology to do dynamic, real-time, label-free, and non-invasive analysis of cellular events including G-protein receptor activation of cells. The RTCA analysis was utilized to measure the potency and relative ability of oligopeptides of the invention and native Ang-(1-7) to activate human umbilical vascular endothelial cells (HUVEC) in culture. Following uniform cellular adherence based on a linear increase in cell impedance (CI), HUVECs were treated with Ang-(1-7) and oligopeptides of the invention. Each trace of the CI over time in FIG. 1 represents the average of 4 wells normalized to CI at the time of compound addition.
# [4] = In Vitro Serum Half-Life Assay; conditions: mouse
# Description: (§1) Aliquots were withdrawn at the indicated time intervals and the peptide concentration was determined using HPLC-MS and expressed as a percentage of the initial concentration.
# [5] = mouse, serum
# Description: as §1
# [6] = In vivo serum and CSF concentration after subcutaneous injection
# Description: The peptides (10 mg/kg) or vehicle control were individually subcutaneously injected into naïve mice. Serum concentrations were determined every 10 minutes by HPLC-MS using a 20-30 μl blood sample. […] CSF samples were simultaneously withdrawn from the same animals via a microdialysis probe and assayed for the peptide concentration and corrected for basal CSF levels.
compound,measurement,setting,value
"CC[C@H](C)[C@H](NC(=O)[C@H](Cc1ccc(O)cc1)NC(=O)[C@@H](NC(=O)[C@H](CCCNC(=N)N)NC(=O)[C@@H](N)CC(=O)O)C(C)C)C(=O)N[C@@H](Cc1c[nH]cn1)C(=O)N1CCC[C@H]1C(=O)O [Ang-(1-7), Asp-Arg-Val-Tyr-Ile-His-Pro]",rotarod latencies versus vehicle,naïve mice,No significant differences in rotarod latencies
CCCCc1nc(Cl)c(CO)n1Cc1ccc(-c2ccccc2-c2nn[nH]n2)cc1 [Losartan potassium],"pain behaviors, AT1 or AT2 antagonist administered alone",[1],neither Losartan potassium nor PD 123319 significantly altered pain behaviors
same,MPE in reducing flinching,"[1]; Losartan potassium 0.4 mg/kg i.p. 30 minutes prior to Ang-(1-7) 0.058 μg/kg, 15 minutes post-administration",80.56%
same,maximal possible efficacy (MPE) in reducing guarding,"[1]; Losartan potassium 0.4 mg/kg i.p. 30 minutes prior to Ang-(1-7) 0.058 μg/kg, 30 minutes post-administration",77.527%
"PN-A4: Asp Arg Val Tyr Ile His Pro Ser** (lactosylated), carboxyl terminal NH2 (SEQ ID NO: 9) (DRVYIHPS; lactosylated; C-terminal amide; MOD_RES (8)..(8) Lactosylated-Ser; C-term -NH2)",NO production versus control levels (relative peak fluorescence intensity),[2],significant elevation of NO over control levels
same,increase in cell impedance (CI) over the native Ang-(1-7),[3]; 100 nM,~2 fold
Cc1cc(Cn2cnc3c2C[C@@H](C(=O)O)N(C(=O)C(c2ccccc2)c2ccccc2)C3)ccc1N(C)C [PD 123319],"pain behaviors, AT1 or AT2 antagonist administered alone",[1],neither Losartan potassium nor PD 123319 significantly altered pain behaviors
same,guarding or flinching versus Ang-(1-7) alone,[1]; PD 123319 0.4 mg/kg i.p. 30 minutes prior to Ang-(1-7) 0.058 μg/kg,did not further increase nor decrease guarding or flinching
CC[C@H](C)[C@H](NC(=O)[C@H](Cc1ccc(O)cc1)NC(=O)[C@@H](NC(=O)[C@H](CCCNC(=N)N)NC(=O)[C@@H](N)CC(=O)O)C(C)C)C(=O)N[C@@H](Cc1c[nH]cn1)C(=O)N[C@@H](CO[C@@H]1O[C@H](CO)[C@@H](O[C@@H]2O[C@H](CO)[C@H](O)[C@H](O)[C@H]2O)[C@H](O)[C@H]1O)C(N)=O [Ang 1-6-Ser(OLac)-NH2] (H-DRVYIHS(X2)-NH2),half-life,[4],5.8 h
"CC[C@H](C)[C@H](NC(=O)[C@H](Cc1ccc(O)cc1)NC(=O)[C@@H](NC(=O)[C@H](CCCNC(=N)N)NC(=O)[C@@H](N)CC(=O)O)C(C)C)C(=O)N[C@@H](Cc1c[nH]cn1)C(=O)N[C@@H](COC1O[C@H](CO)[C@@H](O)[C@H](O)[C@H]1O)C(N)=O (stereo partly drawn) [PN-A5, Ang 1-6-Ser(OGlc)-NH2] (H-DRVYIHS(X1)-NH2)",half-life,[5],1 h
same,maximum CSF concentration,"[6]; 10 mg/kg subcutaneous, naïve mice, microdialysis, corrected for basal CSF levels",about 400 nM
same,Cmax,"[6]; mouse, serum, sc, 10 mg/kg",~3.5 µM
"PN-A3: Asp Arg Val Tyr Ile His Pro Ser* (glucosylated), carboxyl terminal NH2 (SEQ ID NO: 8) (DRVYIHPS; glucosylated; C-terminal amide; MOD_RES (8)..(8) Glucosylated-Ser; C-term -NH2)",NO production versus control levels (relative peak fluorescence intensity),[2],significant elevation of NO over control levels
same,increase in cell impedance (CI) over the native Ang-(1-7),[3]; 10 nM,~2 fold
same,increase in cell impedance (CI) over the native Ang-(1-7),[3]; 100 nM,~2 fold
